From patent US5656603A (Loyola University of Chicago, priority 1995, dated 1997)

What was measured:
[1] = test system: blood pressure response to Bk; assay: Blood pressure response to intravenous bradykinin in the rat; type: in vivo; conditions: rats; intravenously, administered over a one hour period
Protocol: While aminopeptidase P appears to be quantitatively less important than ACE, there is now evidence that aminopeptidase P is nevertheless a physiologically important regulator of the blood pressure response to Bk in the rat (15,41). […] Thus, aminopeptidase P appears to play a significant role in the pulmonary degradation of Bk.
See e.g., Table 2. […] A typical therapeutically effective dose of a compound of the present invention is from about 0.008 mg/kg to 8.0 mg/kg, when given intravenously.

[2] = target: T1, aminopeptidase M (EC 3.4.11.2) (Sus scrofa, UniProt P15145); assay: Specificity of apstatin: aminopeptidase M; type: biochemical; conditions: purified, porcine kidney; Ala-β-NA, pH 6.8, FLUO
T1 construct: Purified porcine kidney prolidase and purified porcine kidney aminopeptidase M was obtained from Sigma; purchased Sigma (St. Louis, Mo.); host or cells: porcine kidney
T1 sequence (P15145 1-963): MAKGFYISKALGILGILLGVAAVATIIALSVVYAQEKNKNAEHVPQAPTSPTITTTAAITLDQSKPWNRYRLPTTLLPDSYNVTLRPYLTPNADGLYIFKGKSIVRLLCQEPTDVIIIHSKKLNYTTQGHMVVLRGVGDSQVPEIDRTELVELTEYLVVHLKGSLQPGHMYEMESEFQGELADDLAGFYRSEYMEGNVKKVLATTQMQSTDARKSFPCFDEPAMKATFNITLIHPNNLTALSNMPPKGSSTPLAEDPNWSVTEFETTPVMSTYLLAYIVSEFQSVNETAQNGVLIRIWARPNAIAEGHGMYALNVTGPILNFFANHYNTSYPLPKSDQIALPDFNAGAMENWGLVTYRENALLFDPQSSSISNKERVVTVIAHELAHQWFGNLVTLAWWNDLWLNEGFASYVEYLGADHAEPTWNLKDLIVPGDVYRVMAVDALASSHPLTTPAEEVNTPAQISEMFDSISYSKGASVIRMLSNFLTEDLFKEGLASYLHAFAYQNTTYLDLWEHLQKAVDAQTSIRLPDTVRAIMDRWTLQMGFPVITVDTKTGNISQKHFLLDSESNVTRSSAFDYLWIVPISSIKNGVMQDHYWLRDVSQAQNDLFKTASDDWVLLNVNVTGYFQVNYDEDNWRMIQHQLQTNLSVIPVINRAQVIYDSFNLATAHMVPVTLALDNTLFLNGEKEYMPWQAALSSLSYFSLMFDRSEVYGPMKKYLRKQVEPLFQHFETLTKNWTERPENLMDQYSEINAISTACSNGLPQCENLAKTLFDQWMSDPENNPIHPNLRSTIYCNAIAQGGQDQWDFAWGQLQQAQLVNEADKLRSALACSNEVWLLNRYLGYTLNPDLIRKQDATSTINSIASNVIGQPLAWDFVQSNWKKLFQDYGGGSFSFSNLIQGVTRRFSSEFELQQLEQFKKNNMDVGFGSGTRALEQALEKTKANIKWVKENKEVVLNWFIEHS
Protocol: Specificity of Apstatin--Apstatin was assayed for its ability to inhibit several other peptidases. […] Unless otherwise indicated, the source of each enzyme activity was a detergent extract of bovine lung prepared as described in (12-13). Activities were determined by a modification of the fluorescent assay described above (indicated by "FLUO") or by HPLC separation and quantitation of reaction products using the method described in (12) (method "HPLC-1") or the method described below (method "HPLC-2"). […]

C[C@H](NC(=O)[C@@H]1CCCN1C(=O)[C@@H]1CCCN1C(=O)[C@@H](O)[C@H](N)Cc1ccccc1)C(N)=O [apstatin, N-[(2S, 3R)-3-amino-2-hydroxy-4-phenylbutanoyl]-L-prolyl-L-prolyl-Lalaninamide]
dose at which Bk potentiation has been observed [1]: 0.08 to 0.8 mg/kg
IC50 [2]: 600 µM
